Test results published in ChEMBL document CHEMBL3870347, “Antimycobacterial activity of novel hydrazide-hydrazone derivatives with 2H-chromene and coumarin scaffold” (Bioorg Med Chem Lett, 2017).
Values after ≈ are worked out from the molar mass of the structure shown. Where a name gives a salt, the structure may show the parent alone.

Assays:
[1] = Cytotoxicity against HEK293T cells assessed as decrease in cell viability after 72 hrs by MTT assay; format: toxicity, cell-based, HEK-293T; settings: human
[2] = system: Mycobacterium tuberculosis; experiment: Antimycobacterial activity against Mycobacterium tuberculosis H37Rv after 45 days; format: functional
[3] = Selectivity index, ratio of IC50 for HEK293T cells to MIC for Mycobacterium tuberculosis H37Rv; format: toxicity, cell-based, HEK-293T; settings: human, read-out: Selectivity Index

Compound | IC50 at 72 h [1] | MIC [2] | selectivity ratio [3]
O=C(N/N=C/C1=Cc2ccccc2OC1c1ccccc1)c1ccc(F)cc1 (centres undefined) | 30.9 µM | 1.34 µM (≈ 0.499 µg/mL) | 
O=C(N/N=C/C1=Cc2ccccc2OC1)c1cccs1 | 22.1 µM | 7.03 µM (≈ 2 µg/mL) | 
CC1Oc2ccccc2C=C1/C=N/NC(=O)c1ccco1 (centres undefined) | 21.2 µM | 0.18 µM (≈ 0.0508 µg/mL) | 118
O=C(N/N=C/c1c(Cl)c2ccccc2oc1=O)c1ccc(F)cc1 | 26.2 µM | 1.45 µM (≈ 0.5 µg/mL) | 
CC[C@@H](CO)NCCN[C@@H](CC)CO [ETHAMBUTOL HYDROCHLORIDE] |  | 7.64 µM | 
O=C(N/N=C/C1=Cc2ccccc2OC1c1ccccc1)c1ccco1 (centres undefined) | 11.9 µM | 0.15 µM (≈ 0.0517 µg/mL) | 79.4
O=C(N/N=C/C1=Cc2ccccc2OC1c1ccccc1)c1ccc(Cl)cc1 (centres undefined) | 13.2 µM | > 5.14 µM | 
O=C(N/N=C/C1=Cc2ccccc2OC1)c1ccco1 | 47.3 µM | 0.74 µM (≈ 0.199 µg/mL) | 63.9
COc1ccc(C(=O)N/N=C/C2=Cc3ccccc3OC2C)cc1 (centres undefined) |  | 6.2 µM (≈ 2 µg/mL) | 
NNC(=O)c1ccncc1 [ISONIAZID] |  | 1.45 µM (≈ 0.199 µg/mL) | 
CC1Oc2ccccc2C=C1/C=N/NC(=O)c1ccccc1 (centres undefined) | 23.3 µM | 6.84 µM (≈ 2 µg/mL) | 
O=C(N/N=C/C1=Cc2ccccc2OC1c1ccccc1)c1cccs1 (centres undefined) |  | > 5.54 µM | 
O=C(N/N=C/c1c(Cl)c2ccccc2oc1=O)c1ccc(O)cc1 | 33.1 µM | 5.83 µM (≈ 2 µg/mL) | 
O=C(N/N=C/c1c(Cl)c2ccccc2oc1=O)c1ccncc1 | 12.6 µM | 6.1 µM (≈ 2 µg/mL) | 
Cc1nnsc1C(=O)N/N=C/C1=Cc2ccccc2OC1c1ccccc1 (centres undefined) | 30.2 µM | 0.53 µM (≈ 0.2 µg/mL) | 56.9
CC1Oc2ccccc2C=C1/C=N/NC(=O)c1cccs1 (centres undefined) |  | > 6.7 µM | 
O=C(N/N=C/C1=Cc2ccccc2OC1)c1ccc(Cl)cc1 |  | 6.39 µM (≈ 2 µg/mL) | 
CC1Oc2ccccc2C=C1/C=N/NC(=O)c1ccc(O)cc1 (centres undefined) | 48.8 µM | 0.64 µM (≈ 0.197 µg/mL) | 76.2
CC1Oc2ccccc2C=C1/C=N/NC(=O)c1ccncc1 (centres undefined) | 76.3 µM | 0.17 µM (≈ 0.0499 µg/mL) | 449
Cc1nnsc1C(=O)N/N=C/c1c(Cl)c2ccccc2oc1=O | 30.2 µM | 0.67 µM (≈ 0.234 µg/mL) | 45
COc1ccc(C(=O)N/N=C/C2=Cc3ccccc3OC2)cc1 | 36 µM | 6.48 µM (≈ 2 µg/mL) | 
COc1ccc(C(=O)N/N=C/C2=Cc3ccccc3OC2c2ccccc2)cc1 (centres undefined) | 90.7 µM | 0.13 µM (≈ 0.05 µg/mL) | 697
CC1Oc2ccccc2C=C1/C=N/NC(=O)c1ccc(Cl)cc1 (centres undefined) |  | > 6.12 µM | 
O=C(N/N=C/c1c(Cl)c2ccccc2oc1=O)c1ccccc1 | 28.6 µM | 6.12 µM (≈ 2 µg/mL) | 
